According to patent US8211935B2, “Heterocyclic derivatives for modulation of calcium channels” (Vertex Pharmaceuticals Incorporated, priority 2004, dated 2012):

target: T1, CaV2.2 (Homo sapiens, UniProt Q00975); assay: VIPR optical membrane potential assay with electrical stimulation; format: cell-based; details: not given
T1 construct: expressed in transfected cells; host or cells: HEK293
How it was run: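 HEK293 cells stably expressing CaV2.2, stained with CC2-DMPE (10 μM final) and oxonol voltage-sensitive dyes, compound added with BaCl2. Membrane potential response evoked by 3-5 s electrical stimulation. Read as background-subtracted 460/580 nm emission ratio, response R=Rf/Ri, normalized to mibefradil positive and no-drug negative controls.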

T1 sequence (Q00975 whole entry): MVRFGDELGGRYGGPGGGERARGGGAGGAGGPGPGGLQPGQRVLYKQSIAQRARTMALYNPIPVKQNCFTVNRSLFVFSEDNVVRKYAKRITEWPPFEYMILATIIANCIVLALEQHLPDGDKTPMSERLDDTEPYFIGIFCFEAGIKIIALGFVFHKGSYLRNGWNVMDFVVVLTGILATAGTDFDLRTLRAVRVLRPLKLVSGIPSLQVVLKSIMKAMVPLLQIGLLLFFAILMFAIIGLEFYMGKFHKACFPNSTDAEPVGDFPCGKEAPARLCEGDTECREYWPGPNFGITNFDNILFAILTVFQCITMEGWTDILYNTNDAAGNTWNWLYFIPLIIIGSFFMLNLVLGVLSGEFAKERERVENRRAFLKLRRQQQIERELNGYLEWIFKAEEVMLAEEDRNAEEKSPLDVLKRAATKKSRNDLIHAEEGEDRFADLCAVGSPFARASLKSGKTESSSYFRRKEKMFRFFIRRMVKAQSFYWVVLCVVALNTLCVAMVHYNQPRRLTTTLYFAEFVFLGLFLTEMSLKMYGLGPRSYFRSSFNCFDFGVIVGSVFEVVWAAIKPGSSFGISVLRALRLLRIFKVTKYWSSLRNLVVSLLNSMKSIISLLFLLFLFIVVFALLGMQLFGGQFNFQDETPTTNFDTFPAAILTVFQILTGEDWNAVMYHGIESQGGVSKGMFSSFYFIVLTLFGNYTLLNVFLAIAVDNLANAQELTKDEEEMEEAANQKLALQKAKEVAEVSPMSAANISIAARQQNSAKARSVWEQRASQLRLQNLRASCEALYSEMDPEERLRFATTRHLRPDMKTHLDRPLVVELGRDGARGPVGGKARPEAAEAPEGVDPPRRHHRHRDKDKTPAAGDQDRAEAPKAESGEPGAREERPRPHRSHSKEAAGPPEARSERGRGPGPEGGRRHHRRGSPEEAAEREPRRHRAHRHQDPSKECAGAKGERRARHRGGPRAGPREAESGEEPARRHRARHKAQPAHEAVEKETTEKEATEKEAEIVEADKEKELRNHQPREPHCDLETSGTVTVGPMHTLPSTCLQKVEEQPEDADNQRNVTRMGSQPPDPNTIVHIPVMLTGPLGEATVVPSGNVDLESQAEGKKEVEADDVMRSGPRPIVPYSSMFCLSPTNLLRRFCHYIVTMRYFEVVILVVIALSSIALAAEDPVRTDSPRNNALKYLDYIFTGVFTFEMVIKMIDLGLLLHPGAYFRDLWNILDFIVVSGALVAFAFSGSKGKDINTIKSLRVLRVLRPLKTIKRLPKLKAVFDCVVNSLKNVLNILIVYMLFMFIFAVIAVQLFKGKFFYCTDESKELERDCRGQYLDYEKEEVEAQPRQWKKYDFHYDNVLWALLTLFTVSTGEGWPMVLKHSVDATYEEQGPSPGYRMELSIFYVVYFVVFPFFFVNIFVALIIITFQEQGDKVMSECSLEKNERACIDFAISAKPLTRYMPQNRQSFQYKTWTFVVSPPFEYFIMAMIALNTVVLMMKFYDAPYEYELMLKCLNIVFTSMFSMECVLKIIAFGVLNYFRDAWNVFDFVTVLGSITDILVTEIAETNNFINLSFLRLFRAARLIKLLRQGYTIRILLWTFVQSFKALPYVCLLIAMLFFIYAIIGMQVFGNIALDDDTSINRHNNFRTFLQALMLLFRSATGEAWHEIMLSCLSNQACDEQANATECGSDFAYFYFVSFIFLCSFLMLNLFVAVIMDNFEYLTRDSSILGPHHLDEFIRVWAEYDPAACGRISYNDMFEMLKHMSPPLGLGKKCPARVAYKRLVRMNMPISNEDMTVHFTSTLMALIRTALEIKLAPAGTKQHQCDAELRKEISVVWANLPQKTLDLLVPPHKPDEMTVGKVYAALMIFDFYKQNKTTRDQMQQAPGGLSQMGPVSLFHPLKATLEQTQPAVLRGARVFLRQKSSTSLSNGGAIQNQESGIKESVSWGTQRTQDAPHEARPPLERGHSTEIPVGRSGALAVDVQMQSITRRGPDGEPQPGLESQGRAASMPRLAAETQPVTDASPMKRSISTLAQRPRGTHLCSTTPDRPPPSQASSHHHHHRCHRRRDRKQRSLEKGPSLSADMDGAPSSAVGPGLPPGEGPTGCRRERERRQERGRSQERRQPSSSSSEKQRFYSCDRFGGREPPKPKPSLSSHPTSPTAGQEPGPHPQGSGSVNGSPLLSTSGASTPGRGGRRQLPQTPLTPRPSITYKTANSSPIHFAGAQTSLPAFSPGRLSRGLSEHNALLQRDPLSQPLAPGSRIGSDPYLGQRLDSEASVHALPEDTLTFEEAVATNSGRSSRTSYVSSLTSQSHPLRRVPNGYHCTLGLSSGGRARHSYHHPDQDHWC
T1 sequence (P54284 whole entry partner): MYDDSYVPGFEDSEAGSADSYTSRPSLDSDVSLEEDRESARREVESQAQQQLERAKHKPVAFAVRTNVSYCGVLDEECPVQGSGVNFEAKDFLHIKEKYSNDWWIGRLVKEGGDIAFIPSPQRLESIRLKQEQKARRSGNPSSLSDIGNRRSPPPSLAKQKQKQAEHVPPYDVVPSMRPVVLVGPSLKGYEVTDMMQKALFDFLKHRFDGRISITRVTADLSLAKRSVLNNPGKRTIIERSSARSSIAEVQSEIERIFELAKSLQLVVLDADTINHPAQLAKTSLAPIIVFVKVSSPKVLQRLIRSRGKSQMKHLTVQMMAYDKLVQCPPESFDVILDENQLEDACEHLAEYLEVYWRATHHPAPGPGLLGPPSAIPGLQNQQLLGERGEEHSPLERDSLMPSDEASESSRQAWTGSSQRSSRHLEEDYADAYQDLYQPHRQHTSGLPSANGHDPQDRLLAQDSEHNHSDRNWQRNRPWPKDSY
T1 sequence (P54289 25-946 partner limits assumed): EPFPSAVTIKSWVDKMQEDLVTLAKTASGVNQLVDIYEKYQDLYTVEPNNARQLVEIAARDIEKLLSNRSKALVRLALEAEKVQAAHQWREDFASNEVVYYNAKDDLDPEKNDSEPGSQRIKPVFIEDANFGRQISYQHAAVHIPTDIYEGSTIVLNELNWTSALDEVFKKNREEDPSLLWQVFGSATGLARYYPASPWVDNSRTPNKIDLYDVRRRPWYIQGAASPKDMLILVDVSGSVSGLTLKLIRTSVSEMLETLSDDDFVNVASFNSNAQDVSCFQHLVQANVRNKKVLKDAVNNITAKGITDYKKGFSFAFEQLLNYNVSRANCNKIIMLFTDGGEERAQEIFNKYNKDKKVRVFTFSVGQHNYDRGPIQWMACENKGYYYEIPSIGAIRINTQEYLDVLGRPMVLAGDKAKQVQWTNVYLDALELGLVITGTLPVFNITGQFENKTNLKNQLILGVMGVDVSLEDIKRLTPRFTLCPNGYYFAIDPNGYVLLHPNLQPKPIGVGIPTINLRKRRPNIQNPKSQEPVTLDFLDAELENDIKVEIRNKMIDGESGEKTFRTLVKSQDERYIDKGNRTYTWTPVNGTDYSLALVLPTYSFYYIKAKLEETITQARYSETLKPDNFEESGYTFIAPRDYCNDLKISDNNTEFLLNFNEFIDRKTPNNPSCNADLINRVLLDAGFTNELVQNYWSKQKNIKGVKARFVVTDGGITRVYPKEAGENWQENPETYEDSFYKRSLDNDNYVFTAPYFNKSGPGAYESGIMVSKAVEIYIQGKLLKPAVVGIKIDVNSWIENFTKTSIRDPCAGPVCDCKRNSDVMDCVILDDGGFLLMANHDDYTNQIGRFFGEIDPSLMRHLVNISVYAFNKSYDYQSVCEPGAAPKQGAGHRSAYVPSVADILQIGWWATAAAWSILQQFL
T1 sequence (P54289 947-1103 partner limits assumed): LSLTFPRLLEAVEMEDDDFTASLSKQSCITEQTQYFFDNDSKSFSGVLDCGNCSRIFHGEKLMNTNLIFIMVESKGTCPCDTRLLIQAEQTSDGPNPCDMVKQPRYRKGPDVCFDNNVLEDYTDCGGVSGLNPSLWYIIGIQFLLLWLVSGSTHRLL

SMILES | IC50 [µM]
CC1CCN(S(=O)(=O)c2ccc3oc(C(=O)N4CCC5(CC4)OCCO5)cc3c2)CC1 [compound 106] | < 20
Cc1c(C(=O)N2CCC3(CC2)OCCO3)oc2ccc(S(=O)(=O)N3CCC(C)CC3)cc12 [compound 287] | 5 to 20
Cc1c(C(=O)N2CCC3(CC2)OCCO3)[nH]c2ccc(S(=O)(=O)N3CC(C)CC(C)C3)cc12 (centres unmarked) [compound 253] | < 5

same assay, conditions: Table 3, biological assay data; read-out: IC50

SMILES | IC50 [µM]
CCN(CC)S(=O)(=O)c1ccc2oc(C(=O)NCc3ccc(C)cc3)c(C)c2c1 [compound 298] | 5 to 20
CC1CC(C)CN(C(=O)c2cc3cc(S(=O)(=O)N4CCCCCC4)ccc3o2)C1 (centres unmarked) [compound 226] | < 5
CCN(CC)S(=O)(=O)c1ccc2oc(C(=O)NCCc3ccccc3)c(C)c2c1 [compound 291] | 5 to 20
Cc1c(C(=O)N2CCCCCC2)[nH]c2ccc(S(=O)(=O)N3CC(C)CC(C)C3)cc12 (centres unmarked) [compound 362] | < 5
CNC(=O)c1cc2cc(S(=O)(=O)N3CC(C)CC(C)C3)ccc2o1 (centres unmarked) [compound 454] | < 5
Cc1c(C(=O)NC2CC2)oc2ccc(S(=O)(=O)Nc3nncs3)cc12 [compound 133] | < 20
Cc1c(C(=O)N2CCN(C)CC2)oc2ccc(S(=O)(=O)N3CCC(C)CC3)cc12 [compound 385] | 5 to 20
CCNC(=O)c1[nH]c2ccc(S(=O)(=O)N3CC(C)CC(C)C3)cc2c1C (centres unmarked) [compound 221] | 5 to 20
CCN(CC)S(=O)(=O)c1ccc2oc(C(=O)NC)c(C)c2c1 [compound 51] | < 20
CCOC(=O)N1CCN(C(=O)c2oc3ccc(S(=O)(=O)N(CC)CC)cc3c2C)CC1 [compound 328] | < 20
CC1CCN(S(=O)(=O)c2ccc3oc(C(=O)NCC4CCCO4)cc3c2)CC1 (centres unmarked) [compound 456] | 5 to 20
CC1CC(C)CN(S(=O)(=O)c2ccc3[nH]c(C(=O)NCCC4CCOCC4)cc3c2)C1 (centres unmarked) [compound 405] | < 5
CCNC(=O)c1cc2cc(S(=O)(=O)N3CCC(C)CC3)ccc2[nH]1 [compound 130] | < 5
CC1CCN(S(=O)(=O)c2ccc3oc(C(=O)NCCCc4ccccc4)cc3c2)CC1 [compound 90] | < 5
CCN(CC)C(=O)c1oc2ccc(S(=O)(=O)N3CCCCCC3)cc2c1C [compound 92] | 5 to 20
CCN(CC)C(=O)c1cc2cc(S(=O)(=O)N3CC(C)CC(C)C3)ccc2[nH]1 (centres unmarked) [compound 196] | < 5
COc1ccc(CNC(=O)c2oc3ccc(S(=O)(=O)N4CCC(C)CC4)cc3c2C)cc1 [compound 282] | < 5
Cc1c(C(=O)NC2CCCCC2)oc2ccc(S(=O)(=O)N3CCCCC3)cc12 [compound 459] | 5 to 20
CC1CC(C)CN(S(=O)(=O)c2ccc3oc(C(=O)NC(C)C)cc3c2)C1 (centres unmarked) [compound 271] | < 5
CCNC(=O)c1oc2ccc(S(=O)(=O)N3CCCCCC3)cc2c1C [compound 150] | 5 to 20
CC1CC(C)CN(S(=O)(=O)c2ccc3[nH]c(C(=O)N4CCN(C)CC4)cc3c2)C1 (centres unmarked) [compound 91] | 5 to 20
O=C(NC1CC1)c1cc2cc(S(=O)(=O)N3CCCCCC3)ccc2n1S(=O)(=O)c1ccccc1 [compound 421] | < 5
Cc1c(C(=O)NC2CCCCC2C)oc2ccc(S(=O)(=O)N3CCCC3)cc12 (centres unmarked) [compound 132] | < 20
Cc1c(C(=O)NCc2ccccc2)oc2ccc(S(=O)(=O)N3CCC(C)CC3)cc12 [compound 189] | 5 to 20
CCN(CC)S(=O)(=O)c1ccc2oc(C(=O)N3CCCC(C)C3)c(C)c2c1 (centres unmarked) [compound 388] | 5 to 20
CNC(=O)c1oc2ccc(S(=O)(=O)N3CCCC(C)C3)cc2c1C (centres unmarked) [compound 365] | 5 to 20

SMILES | IC50 [µM]
CNC(=O)c1[nH]c2ccc(S(=O)(=O)N3CCCCCC3)cc2c1C [compound 442] | 5 to 20
CC1CC(C)CN(S(=O)(=O)c2ccc3oc(C(=O)NCCCc4ccccc4)cc3c2)C1 (centres unmarked) [compound 53] | < 5
Cc1c(C(=O)NC2CCCC2)oc2ccc(S(=O)(=O)N3CCCC(C)C3)cc12 (centres unmarked) [compound 177] | < 5
CC1CCN(S(=O)(=O)c2ccc3[nH]c(C(=O)N4CCCCCC4)cc3c2)CC1 [compound 348] | 5 to 20
CC1CC(C)CN(S(=O)(=O)c2ccc3oc(C(=O)N4CCCCCC4)cc3c2)C1 (centres unmarked) [compound 240] | < 5
CCN(CC)S(=O)(=O)c1ccc2oc(C(=O)N(C(C)C)C(C)C)c(C)c2c1 [compound 278] | 5 to 20
Cc1c(C(=O)N2CC(C)CC(C)C2)oc2ccc(S(=O)(=O)N3CCCCCC3)cc12 (centres unmarked) [compound 243] | 5 to 20
CCN(CC)C(=O)c1cc2cc(S(=O)(=O)N3CCC(C)CC3)ccc2o1 [compound 268] | < 5
Cc1c(C(=O)NCC2CCOCC2)oc2ccc(S(=O)(=O)N3CCCC(C)C3)cc12 (centres unmarked) [compound 383] | 5 to 20
CCN(CC)S(=O)(=O)c1ccc2oc(C(=O)NC3CCCCC3)c(C)c2c1 [compound 370] | 5 to 20
Cc1c(C(=O)N2CCCC2)oc2ccc(S(=O)(=O)N3CCCC(C)C3)cc12 (centres unmarked) [compound 178] | 5 to 20
CC(C)NC(=O)c1cc2cc(S(=O)(=O)N3CCCCCC3)ccc2o1 [compound 218] | 5 to 20
Cc1c(C(=O)N2CCCC2)[nH]c2ccc(S(=O)(=O)N3CC(C)CC(C)C3)cc12 (centres unmarked) [compound 324] | < 5
O=C(c1cc2cc(S(=O)(=O)N3CCCCCC3)ccc2o1)N1CCCCCC1 [compound 169] | < 5
Cc1c(C(=O)N2CC(C)CC(C)C2)oc2ccc(S(=O)(=O)N3CCCC(C)C3)cc12 (centres unmarked) [compound 233] | < 5
CC(C)N(C(=O)c1cc2cc(S(=O)(=O)N3CCCCCC3)ccc2o1)C(C)C [compound 67] | < 5
CCOC(=O)N1CCN(C(=O)c2cc3cc(S(=O)(=O)N4CC(C)CC(C)C4)ccc3o2)CC1 (centres unmarked) [compound 346] | < 5
CCNC(=O)c1cc2cc(S(=O)(=O)N3CCCCCC3)ccc2[nH]1 [compound 77] | < 5
Cc1c(C(=O)NC2CCCC2)[nH]c2ccc(S(=O)(=O)N3CCCCCC3)cc12 [compound 258] | 5 to 20
CC1CCN(S(=O)(=O)c2ccc3[nH]c(CNC4CC4)cc3c2)CC1 [compound 108] | < 5
O=C(c1cc2cc(S(=O)(=O)N3CCCCCC3)ccc2[nH]1)N1CCCC1 [compound 272] | < 20
CN(Cc1ccccc1)C(=O)c1cc2cc(S(=O)(=O)N3CCCCCC3)ccc2[nH]1 [compound 416] | < 5
CC1CCN(S(=O)(=O)c2ccc3oc(C(=O)NCCC4CCOCC4)cc3c2)CC1 [compound 266] | < 5
CC1CC(C)CN(S(=O)(=O)c2ccc3oc(C(=O)NCCC4CCOCC4)cc3c2)C1 (centres unmarked) [compound 225] | < 5
Cc1c(C(=O)N2CCN(C)CC2)oc2ccc(S(=O)(=O)N3CC(C)CC(C)C3)cc12 (centres unmarked) [compound 193] | 5 to 20
Cc1c(C(=O)N(C)C)oc2ccc(S(=O)(=O)N3CCC(C)CC3)cc12 [compound 353] | 5 to 20

SMILES | IC50 [µM]
CC1CCCN(C(=O)c2cc3cc(S(=O)(=O)N4CCCCCC4)ccc3o2)C1 (centres unmarked) [compound 170] | < 5
Cc1c(C(=O)N2CCN(C)CC2)[nH]c2ccc(S(=O)(=O)N3CCC(C)CC3)cc12 [compound 290] | 5 to 20
CCN(CC)S(=O)(=O)c1ccc2oc(C(=O)NCC3CCCO3)c(C)c2c1 (centres unmarked) [compound 179] | < 20
Cc1c(C(=O)NC2CCCC2)[nH]c2ccc(S(=O)(=O)N3CCC(C)CC3)cc12 [compound 146] | < 5
CCN(CC)C(=O)c1oc2ccc(S(=O)(=O)N(CC)CC)cc2c1C [compound 186] | < 20
O=C(c1cc2cc(S(=O)(=O)N3CCCCCC3)ccc2o1)N1CCCCC1 [compound 96] | 5 to 20
Cc1c(C(=O)NCC2CCCO2)oc2ccc(S(=O)(=O)N3CCC(C)CC3)cc12 (centres unmarked) [compound 238] | 5 to 20
Cc1c(C(=O)NC2CCCCC2)oc2ccc(S(=O)(=O)N3CCOCC3)cc12 [compound 75] | < 20
O=C(NC1CC1)c1cc2cc(NS(=O)(=O)C3CC3)ccc2[nH]1 [compound 71] | < 20
O=C(NC1CCCC1)c1cc2cc(S(=O)(=O)N3CCCCCC3)ccc2[nH]1 [compound 41] | 5 to 20
CCOC(=O)N1CCN(C(=O)c2cc3cc(S(=O)(=O)N4CCC(C)CC4)ccc3[nH]2)CC1 [compound 84] | < 5
CNC(=O)c1oc2ccc(S(=O)(=O)N3CCC(C)CC3)cc2c1C [compound 10] | 5 to 20
Cc1c(C(=O)N(C(C)C)C(C)C)oc2ccc(S(=O)(=O)N3CCCC(C)C3)cc12 (centres unmarked) [compound 263] | < 5
CCN(CC)C(=O)c1oc2ccc(S(=O)(=O)N3CCCC(C)C3)cc2c1C (centres unmarked) [compound 199] | < 5
CC1CCN(S(=O)(=O)c2ccc3oc(C(=O)NC4CCCCC4)cc3c2)CC1 [compound 219] | 5 to 20
Cc1c(C(=O)N2CCC(C)CC2)oc2ccc(S(=O)(=O)N3CCCCCC3)cc12 [compound 307] | < 5
Cc1c(C(=O)N(C)C)oc2ccc(S(=O)(=O)N3CCCCC3)cc12 [compound 277] | < 20
CC1CCN(C(=O)c2cc3cc(S(=O)(=O)N4CC(C)CC(C)C4)ccc3[nH]2)CC1 (centres unmarked) [compound 194] | < 5
CC1CCN(S(=O)(=O)c2ccc3[nH]c(C(=O)NCCc4ccccc4)cc3c2)CC1 [compound 340] | < 5
CC1CCN(S(=O)(=O)c2ccc3[nH]c(C(=O)N4CCCC(C)C4)cc3c2)CC1 (centres unmarked) [compound 101] | < 5
CC(C)NC(=O)c1cc2cc(S(=O)(=O)N3CCCCCC3)ccc2[nH]1 [compound 400] | < 20
CC1CC(C)CN(S(=O)(=O)c2ccc3oc(C(=O)NCc4ccccc4)cc3c2)C1 (centres unmarked) [compound 276] | < 5
CC1CCN(S(=O)(=O)c2ccc3[nH]c(C(=O)NCc4ccccc4)cc3c2)CC1 [compound 36] | < 5
Cc1c(C(=O)N2CCN(C)CC2)[nH]c2ccc(S(=O)(=O)N3CC(C)CC(C)C3)cc12 (centres unmarked) [compound 160] | 5 to 20
Cc1c(C(=O)N2CCCCC2C)oc2ccc(S(=O)(=O)N3CCCCC3)cc12 (centres unmarked) [compound 59] | 5 to 20
